Data published in the supplement of paper PMC4862054.

Assays:
Experiment in all cases: normalised response (% of control), CellTiter-Glo; higher = more viable cells (100 = DMSO, 0 = benzethonium chloride kill control)
Details in all cases: incubation time: 72 h
HCC1599 [1] = test system: HCC1599
Procedure: (§1)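 DSRT, 72 h incubation, CellTox Green / CellTiter-Glo readout. Signal is normalised to DMSO and benzethonium chloride controls. Value is the normalised response at the highest dose.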

Hs578T [2] = test system: Hs578T
Procedure: as §1

MDA-MB-453 [3] = test system: MDA-MB-453
Procedure: as §1

HCC1143 [4] = test system: HCC1143
Procedure: as §1

CAL-51 [5] = test system: CAL-51
Procedure: as §1

MCF-10A = test system: MCF-10A
Procedure: as §1

MDA-MB-468 [6] = test system: MDA-MB-468
Procedure: as §1

CAL-120 [7] = test system: CAL-120
Procedure: as §1

MDA-MB-231 [8] = test system: MDA-MB-231
Procedure: as §1

HCC1937 [9] = test system: HCC1937
Procedure: as §1

BT-549 = test system: BT-549
Procedure: as §1

DU-4475 [10] = test system: DU-4475
Procedure: as §1

MFM-223 [11] = test system: MFM-223
Procedure: as §1

CAL-148 [12] = test system: CAL-148
Procedure: as §1

SK-BR-3 [13] = test system: SK-BR-3
Procedure: as §1

HCC1599 [14] = test system: HCC1599; remark: listed apart in the source
Procedure, shortened: (§2)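 Breast cancer cell lines, seeded at 20 µl suspension per well, were incubated for 72 h in 384-well plates containing compound at 5 concentrations. These concentrations rose in 10-fold steps over a 10,000-fold range set for each compound. CellTox Green fluorescence (485/520 nm) was read, then CellTiter-Glo luminescence after 10 min at room temperature, and each plate was normalised to 0.1 % DMSO (100) and a positive kill control (0). Values are normalised signals, each at one concentration.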

Hs578T [15] = test system: Hs578T; remark: listed apart in the source
Procedure, shortened: as §2

MDA-MB-453 [16] = test system: MDA-MB-453; remark: listed apart in the source
Procedure, shortened: as §2

HCC1143 [17] = test system: HCC1143; remark: listed apart in the source
Procedure, shortened: as §2

CAL-51 [18] = test system: CAL-51; remark: listed apart in the source
Procedure, shortened: as §2

MDA-MB-468 [19] = test system: MDA-MB-468; remark: listed apart in the source
Procedure, shortened: as §2

CAL-120 [20] = test system: CAL-120; remark: listed apart in the source
Procedure, shortened: as §2

MDA-MB-231 [21] = test system: MDA-MB-231; remark: listed apart in the source
Procedure, shortened: as §2

HDQ-P1 = test system: HDQ-P1
Procedure, shortened: as §2

MDA-MB-436 = test system: MDA-MB-436
Procedure, shortened: as §2

HCC1937 [22] = test system: HCC1937; remark: listed apart in the source
Procedure, shortened: as §2

DU-4475 [23] = test system: DU-4475; remark: listed apart in the source
Procedure, shortened: as §2

BT-474 = test system: BT-474
Procedure, shortened: as §2

MFM-223 [24] = test system: MFM-223; remark: listed apart in the source
Procedure, shortened: as §2

CAL-148 [25] = test system: CAL-148; remark: listed apart in the source
Procedure, shortened: as §2

SK-BR-3 [26] = test system: SK-BR-3; remark: listed apart in the source
Procedure, shortened: as §2

SMILES	normalised response (HCC1599 [1]) [%]	normalised response (Hs578T [2]) [%]	normalised response (MDA-MB-453 [3]) [%]	normalised response (HCC1143 [4]) [%]	normalised response (CAL-51 [5]) [%]	normalised response (MCF-10A) [%]	normalised response (MDA-MB-468 [6]) [%]	normalised response (CAL-120 [7]) [%]	normalised response (MDA-MB-231 [8]) [%]	normalised response (HCC1937 [9]) [%]	normalised response (BT-549) [%]	normalised response (DU-4475 [10]) [%]	normalised response (MFM-223 [11]) [%]	normalised response (CAL-148 [12]) [%]	normalised response (SK-BR-3 [13]) [%]	normalised response (HCC1599 [14]) [%]	normalised response (Hs578T [15]) [%]	normalised response (MDA-MB-453 [16]) [%]	normalised response (HCC1143 [17]) [%]	normalised response (CAL-51 [18]) [%]	normalised response (MDA-MB-468 [19]) [%]	normalised response (CAL-120 [20]) [%]	normalised response (MDA-MB-231 [21]) [%]	normalised response (HDQ-P1) [%]	normalised response (MDA-MB-436) [%]	normalised response (HCC1937 [22]) [%]	normalised response (DU-4475 [23]) [%]	normalised response (BT-474) [%]	normalised response (MFM-223 [24]) [%]	normalised response (CAL-148 [25]) [%]	normalised response (SK-BR-3 [26]) [%]
CN1CCC(COc2cnc(-c3cccc(Cn4nc(-c5cccc(C#N)c5)ccc4=O)c3)nc2)CC1 (1000 nM)	85.6	95.2	84	97.8	110	89.3	90.3	96.1	104	84	91.9	101	84.9	94.5	81																
CN1CC[C@H](c2c(O)cc(O)c3c(=O)cc(-c4ccccc4Cl)oc23)[C@H](O)C1 [Alvocidib] (1000 nM)																17.2	10.1	28	17.1	9.5	8.32	35.2	3.01	19.8	14.2	29.1	10.1	20	14	26.1	2.44
Nc1nc(Cl)nc2c1ncn2[C@H]1C[C@H](O)[C@@H](CO)O1 [Cladribine] (100 nM)																112	100	106	100	90.1	93.8	94.5	93.3	97.5	104	90.3	101	97.1	101	97.8	111
Nc1ccn([C@@H]2O[C@H](CO)[C@@H](O)[C@@H]2O)c(=O)n1 [Cytarabine] (1000 nM)																93.4	81.6	105	80.6	39.7	74.3	88	86.8	92	46.4	85.2	77.8	90.6	101	55.5	46.7
Cc1c2oc3c(C)ccc(C(=O)N[C@@H]4C(=O)N[C@H](C(C)C)C(=O)N5CCC[C@H]5C(=O)N(C)CC(=O)N(C)[C@@H](C(C)C)C(=O)O[C@@H]4C)c3nc-2c(C(=O)N[C@@H]2C(=O)N[C@H](C(C)C)C(=O)N3CCC[C@H]3C(=O)N(C)CC(=O)N(C)[C@@H](C(C)C)C(=O)O[C@@H]2C)c(N)c1=O [Dactinomycin] (100 nM)																8.92	7.79	6.8	8.6	2.69	3.22	19.8	2.57	21.8	17	18.9	0.24	6.79	26.6	2.05	11.3
COc1cccc2c1C(=O)c1c(O)c3c(c(O)c1C2=O)C[C@@](O)(C(=O)CO)C[C@@H]3O[C@H]1C[C@H](N)[C@H](O)[C@H](C)O1 [Doxorubicin] (100 nM)																115	98.7	117	105	39	71.4	98.6	95.9	98.7	85.4	107	80.7	82.9	115	82.7	92.2
Cc1ccc(F)c(NC(=O)Nc2ccc(-c3cccc4[nH]nc(N)c34)cc2)c1 [Linifanib] (100 nM)																104	98	112	105	75.2	104	114	111	103	112	102	98.7	106	110	109	112
S=c1[nH]cnc2nc[nH]c12 [Mercaptopurine] (1000 nM)																80.5	71.8	98.6	95.3	108	91.8	88.8	66.6	47.7	88.7	59.4	79.7	75.6	93.7	85	95.2
Clc1ccc(C(c2ccccc2Cl)C(Cl)Cl)cc1 (stereo unspecified) [Mitotane] (1000 nM)																121	104	92.5	94.1	98.3	98.7	97.7	101	101	98.2	99.6	95.3	92	97.4	95.7	94.2
COc1cccc2cc(-c3nc([C@H]4CC[C@H](C(=O)O)CC4)n4ncnc(N)c34)[nH]c12 [OSI-027] (1000 nM)																118	96.6	71.2	90.8	92.4	84.2	77.3	85.5	66.1	80.2	81.2	89.3	79.6	72.5	93.1	48.2
OC[C@H]1O[C@@H](n2cnc3c2N=CNC[C@H]3O)C[C@@H]1O [Pentostatin] (1000 nM)																103	105	97.8	104	92.4	99.4	95.6	108	94.1	102	100	98	93.9	103	94.4	104
N#CC[C@H](C1CCCC1)n1cc(-c2ncnc3[nH]ccc23)cn1 [Ruxolitinib] (1000 nM)																100	105	84.3	92.9	121	90.8	89.4	104	98.2	101	103	99.6	90.2	91	99.9	90.2
C=CC[C@@H]1/C=C(\C)C[C@H](C)C[C@H](OC)[C@H]2O[C@@](O)(C(=O)C(=O)N3CCCC[C@H]3C(=O)O[C@H](/C(C)=C/[C@@H]3CC[C@@H](O)[C@H](OC)C3)[C@H](C)[C@@H](O)CC1=O)[C@H](C)C[C@@H]2OC [Tacrolimus] (1000 nM)																121	96	108	98.4	109	105	101	106	105	99.7	101	100	97.4	101	96.6	88.5
C=CCNC1=C2C[C@@H](C)C[C@H](OC)[C@H](O)[C@@H](C)/C=C(\C)[C@H](OC(N)=O)[C@@H](OC)/C=C\C=C(/C)C(=O)NC(=CC1=O)C2=O [Tanespimycin] (1000 nM)																57.8	38.2	28.9	36	26	42.3	51.8	23.5	22.8	43.3	29	0.04	21.1	39.2	24.1	38.5
C[C@]1(c2nc3c(C(N)=O)cccc3[nH]2)CCCN1 [Veliparib] (1000 nM)																104	105	109	105	72.6	104	97	103	102	95.4	101	98.6	93.8	107	96.2	101
CC[C@]1(O)C[C@@H]2CN(CCc3c([nH]c4ccccc34)[C@@](C(=O)OC)(c3cc4c(cc3OC)N(C)[C@H]3[C@@](O)(C(=O)OC)[C@H](OC(C)=O)[C@]5(CC)C=CCN6CC[C@]43[C@@H]65)C2)C1 [Vinblastine] (100 nM)																26.6	22.4	57.5	56.6	31.6	34.7	62.9	40.1	71.9	25.3	67.7	61.9	52.3	44.1	42	14.2
CS(=O)(=O)c1ccc(C(=O)Nc2ccc(Cl)c(-c3ccccn3)c2)c(Cl)c1 [Vismodegib] (1000 nM)																118	101	89.6	89.2	105	94.9	90.9	95.9	98.4	93.3	95.5	98.9	90.3	95.2	98.8	86.5
